Experimental data published in patent US11584714B2 (priority 2018, dated 2023).
Counter-ions that a name gives are not always drawn. Like-named read-outs stand apart in the source and are kept apart here.

Key:
Type in all cases: biochemical
[1] = biological target: mMASP-2 (Mus musculus (Mouse), UniProt Q91WP0); test: Enzymatic inhibition of mMASP-2; conditions: read-out: mMASP-2 Ki
[2] = biological target: human α-thrombin (Homo sapiens (Human), UniProt P00734); test: Enzymatic assay for thrombin (Boc-VPR-AMC substrate)
[3] = biological target: MASP-2 (CCP1-CCP2-SP) (Homo sapiens (Human), UniProt O00187); test: biochemical
MASP-2 (CCP1-CCP2-SP), sequence (O00187 445-686): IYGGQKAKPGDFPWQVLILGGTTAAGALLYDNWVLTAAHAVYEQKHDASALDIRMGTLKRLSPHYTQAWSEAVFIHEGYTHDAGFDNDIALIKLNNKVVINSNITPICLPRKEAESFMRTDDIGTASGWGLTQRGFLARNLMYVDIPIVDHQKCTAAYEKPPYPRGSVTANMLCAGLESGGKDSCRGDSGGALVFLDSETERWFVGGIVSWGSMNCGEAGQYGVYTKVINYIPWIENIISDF

[4] = MASP-2 inhibition versus thrombin
[5] = selectivity for MASP-2 inhibition versus thrombin

mMASP-2, sequence (Q91WP0 20-685): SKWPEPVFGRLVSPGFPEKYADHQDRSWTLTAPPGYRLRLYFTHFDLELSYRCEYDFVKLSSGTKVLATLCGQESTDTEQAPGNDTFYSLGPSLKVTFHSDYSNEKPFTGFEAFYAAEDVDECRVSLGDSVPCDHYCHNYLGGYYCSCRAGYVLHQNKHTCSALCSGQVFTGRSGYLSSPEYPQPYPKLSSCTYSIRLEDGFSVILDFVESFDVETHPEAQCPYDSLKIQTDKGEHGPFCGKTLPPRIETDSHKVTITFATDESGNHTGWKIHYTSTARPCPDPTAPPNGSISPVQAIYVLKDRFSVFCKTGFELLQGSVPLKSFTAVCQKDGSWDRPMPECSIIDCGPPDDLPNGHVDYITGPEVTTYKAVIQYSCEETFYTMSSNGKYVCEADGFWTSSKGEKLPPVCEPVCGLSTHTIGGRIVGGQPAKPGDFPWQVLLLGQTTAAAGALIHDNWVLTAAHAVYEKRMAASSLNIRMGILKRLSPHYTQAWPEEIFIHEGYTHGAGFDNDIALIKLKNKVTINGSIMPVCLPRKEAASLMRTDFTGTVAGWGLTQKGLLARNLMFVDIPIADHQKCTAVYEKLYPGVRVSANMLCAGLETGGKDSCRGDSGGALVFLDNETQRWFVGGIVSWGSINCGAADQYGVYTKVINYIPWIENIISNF

Row | SMILES | Ki [3] | Ki ([2]; read-out: Thrombin Ki) | Ki ([3]; read-out: MASP-2 Ki) | MASP-2 vs. thrombin selectivity [3, 4] | also measured
1 | C[C@H](NC(=O)[C@H]1C[C@](O)(c2ccccc2)CN1)C(=O)NCc1ccc(C(=N)N)cc1 [compound 1071] |  |  |  |  | Ki [1]: < 0.5 µM
2 | C[C@H](NC(=O)C1CCC(c2ccccc2)CN1)C(=O)NCc1ccc(C(=N)N)cc1 (single isomer, unassigned) [compound 1067] |  |  |  |  | Ki [1]: < 0.5 µM
3 | Cc1cccnc1-c1nc2cc(C(=N)N)ccc2[nH]1 [compound 2004, 2-(3-methylpyridin-2-yl)-1H-benzo[d]imidazole-5-carboximidamide dihydrochloride] | > 25 µM |  |  |  | Ki ([2]; +Zn, read-out: Thrombin Ki): < 0.5 µM; Ki ([2]; Thrombin Ki (μM), +EDTA): > 25 µM; MASP-2 versus thrombin selectivity ([3]; +Zn): + (+Zn) (1.0 to 5.0-fold); Ki ([3]; +Zn, read-out: MASP-2 Ki): < 0.5 µM
4 | CCc1ccc(-c2nc3cc(C(=N)N)ccc3[nH]2)nc1 [compound 2007, 2-(5-ethylpyridin-2-yl)-1H-benzo[d]imidazole-5-carboximidamide dihydrochloride] | > 25 µM |  |  |  | Ki ([2]; +Zn, read-out: Thrombin Ki): < 2.5 µM; Ki ([2]; Thrombin Ki (μM), +EDTA): > 25 µM; MASP-2 versus thrombin selectivity ([3]; +Zn): ++ (+Zn) (5.0 to 25-fold); Ki ([3]; +Zn, read-out: MASP-2 Ki): < 0.5 µM
5 | CCCCCCOC(=O)NC(=N)c1ccc(CNC(=O)[C@H](C)NC(=O)[C@H]2C[C@H](c3ccccc3)CN2)cc1 [compound 1260, Hexyl (imino(4-(((S)-2-((2R,4R)-4-phenylpyrrolidine-2-carboxamido)propanamido)methyl)phenyl)methyl)carbamate] |  | > 25 µM | 2.5 to 10 µM |  | 
6 | C[C@H](NC(=O)[C@@H](CCc1ccccc1)NCC(C)(C)C)C(=O)NCc1ccc(C(=N)N)cc1 [compound 1126] |  | < 0.5 µM | < 0.5 µM | −− (less than 1.0-fold) | 
7 | N=C(N)c1ccc2[nH]c(-c3ccc4ccccc4n3)nc2c1 [compound 2013, 2-(quinolin-2-yl)-1H-benzo[d]imidazole-5-carboximidamide dihydrochloride] | > 25 µM |  |  |  | Ki ([2]; +Zn, read-out: Thrombin Ki): < 10 µM; Ki ([2]; Thrombin Ki (μM), +EDTA): > 25 µM; MASP-2 versus thrombin selectivity ([3]; +Zn): ++++ (+Zn) (>100-fold); Ki ([3]; +Zn, read-out: MASP-2 Ki): < 0.5 µM
8 | C[C@H](NC(=O)[C@@H](CCc1ccccc1)NC1CCCCC1)C(=O)NCc1ccc(C(=N)N)cc1 [compound 1130, (R)—N—((S)-1-((4-Carbamimidoylbenzyl)amino)-1-oxopropan-2-yl)-2-(cyclohexylamino)-4-phenylbutanamide Dihydrochloride] |  | < 0.5 µM | < 0.5 µM | −− (less than 1.0-fold) | 
9 | C[C@H](NC(=O)[C@H](N)CCc1ccccc1)C(=O)NCc1cc(Cl)ccc1[N+](=O)[O-] [compound 1246, (R)-2-Amino-N—((S)-1-((5-chloro-2-nitrobenzyl)amino)-1-oxopropan-2-yl)-4-phenylbutanamide] | 10 to 25 µM |  |  |  | Ki ([2]; Thrombin Ki (μM)): 10 to 25 µM; MASP-2 vs. thrombin selectivity [3, 5]: * (≥1.0 to <5.0-fold)
10 | N=C(N)c1ccc(CNC(=O)[C@@H]2CCN2C(=O)[C@H](N)C2Cc3ccccc3C2)cc1 [compound 1058, (S)-1-((R)-2-Amino-2-(2,3-dihydro-1H-inden-2-yl)acetyl)-N-(4-carbamimidoylbenzyl)azetidine-2-carboxamide] |  | < 0.5 µM | < 0.5 µM | −− (less than 1.0-fold) | 
11 | C[C@H](NC(=O)[C@H]1C[C@H](c2ccccc2)CN1)C(=O)NCc1ccc(C(=N)NC(=O)OCc2ccccc2)cc1 [compound 1259, Benzyl (imino(4-(((S)-2-((2R,4R)-4-phenylpyrrolidine-2-carboxamido)propanamido)methyl)phenyl)methyl)carbamate] | 2.5 to 10 µM | > 25 µM |  |  | 
12 | COc1cc(C(=N)N)ccc1CNC(=O)[C@H](C)NC(=O)[C@H](N)CCc1ccccc1 [compound 1251, (R)-2-amino-N—((S)-1-((4-carbamimidoyl-2-methoxybenzyl)amino)-1-oxopropan-2-yl)-4-phenylbutanamide] | 0.5 to 2.5 µM | < 0.5 µM |  |  | MASP-2 vs. thrombin selectivity [3, 5]: −− (<1.0-fold)
13 | Nc1ccc2[nH]c(Cc3nc4cc(N)ccc4[nH]3)nc2c1 [compound 2006] | > 25 µM |  |  |  | Ki ([2]; +EDTA, read-out: Thrombin Ki): > 25 µM; Ki ([2]; +Zn, read-out: Thrombin Ki): > 25 µM; MASP-2 versus thrombin selectivity ([3]; +Zn): + (+Zn) (1.0 to 5.0-fold); Ki ([3]; +Zn, read-out: MASP-2 Ki): < 10 µM
14 | C[C@@H](C(=O)NCc1ccc(C(=N)N)cc1)N(C)C(=O)[C@H](NCC(=O)O)C1CCCCC1 [compound 1107] |  | < 0.5 µM | < 0.5 µM | −− (less than 1.0-fold) | 
15 | COC(=O)NC(=N)c1ccc(CNC(=O)[C@H](C)NC(=O)[C@H]2C[C@H](c3ccccc3)CN2)cc1 [compound 1258, Methyl (imino(4-(((S)-2-((2R,4R)-4-phenylpyrrolidine-2-carboxamido)propanamido)methyl)phenyl)methyl)carbamate] | 2.5 to 10 µM | > 25 µM |  |  | 
16 | COc1cc(CC[C@@H](N)C(=O)N[C@@H](C)C(=O)NCc2ccc(C(=N)N)cc2)cc(OC)c1 [compound 1112] |  | < 0.5 µM | < 0.5 µM | ** (5.0 to 25-fold) | 
17 | C[C@H](NC(=O)[C@@H](CCc1ccccc1)NCc1ccc2cc(O)ccc2c1)C(=O)NCc1ccc(C(=N)N)cc1 [compound 1256, (R)—N—((S)-1-((4-Carbamimidoylbenzyl)amino)-1-oxopropan-2-yl)-2-(((6-hydroxynaphthalen-2-yl)methyl)amino)-4-phenylbutanamide] |  | < 0.5 µM | < 0.5 µM |  | MASP-2 vs. thrombin selectivity [3, 5]: * (≥1.0 to <5.0-fold)
18 | C[C@H](NC(=O)[C@H](N)CCc1cc(F)cc(F)c1)C(=O)NCc1ccc(C(=N)N)cc1 [compound 1087] |  | < 0.5 µM | < 0.5 µM | ** (5.0 to 25-fold) | 
19 | Cc1cccc(-c2nc3cc(C(=N)N)ccc3[nH]2)n1 [compound 2003, 2-(6-methylpyridin-2-yl)-1H-benzo[d]imidazole-5-carboximidamide] | > 25 µM |  |  |  | Ki ([2]; +Zn, read-out: Thrombin Ki): < 2.5 µM; Ki ([2]; Thrombin Ki (μM), +EDTA): > 25 µM; MASP-2 versus thrombin selectivity ([3]; +Zn): +++ (+Zn) (25 to 100-fold); Ki ([3]; +Zn, read-out: MASP-2 Ki): < 0.05 µM
20 | COCc1cccc(-c2nc3cc(C(=N)N)ccc3[nH]2)n1 [compound 2011, 2-(6-(methoxymethyl)pyridin-2-yl)-JH-benzo[d]imidazole-5-carboximidamide dihydrochloride] | > 25 µM |  |  |  | Ki ([2]; +Zn, read-out: Thrombin Ki): < 2.5 µM; Ki ([2]; Thrombin Ki (μM), +EDTA): > 25 µM; MASP-2 versus thrombin selectivity ([3]; +Zn): ++ (+Zn) (5.0 to 25-fold); Ki ([3]; +Zn, read-out: MASP-2 Ki): < 0.5 µM
21 | N=C(N)c1ccc(CNC(=O)[C@@H]2CCN2C(=O)[C@@H](CCc2ccccc2)NCC(=O)O)cc1 [compound 1124] |  | < 0.5 µM | < 0.5 µM | −− (less than 1.0-fold) | 
22 | Cc1cc(N)ncc1CNC(=O)[C@H](C)NC(=O)[C@H](N)CCc1ccccc1 [compound 1243, (R)-2-Amino-N—((S)-1-(((6-amino-4-methylpyridin-3-yl)methyl)amino)-1-oxopropan-2-yl)-4-phenylbutanamide] | 10 to 25 µM | > 25 µM |  |  | 
23 | C[C@H](NC(=O)[C@@H](CCc1ccccc1)NC1CCCC1)C(=O)NCc1ccc(C(=N)N)cc1 [compound 1122] |  | < 0.5 µM | < 0.5 µM | −− (less than 1.0-fold) | 
24 | Cc1ccc(-c2nc3cc(C(=N)N)ccc3[nH]2)nc1 [compound 2010, 2-(5-methylpyridin-2-yl)-1H-benzo[d]imidazole-5-carboximidamide dihydrochloride] | > 25 µM |  |  |  | Ki ([2]; +EDTA, read-out: Thrombin Ki): < 25 µM; Ki ([2]; +Zn, read-out: Thrombin Ki): < 2.5 µM; MASP-2 versus thrombin selectivity ([3]; +Zn): ++ (+Zn) (5.0 to 25-fold); Ki ([3]; +Zn, read-out: MASP-2 Ki): < 0.05 µM
